Data: patent US4031231A, “Antibacterial composition comprising 3-fluoro-D-alanine or deutero analog in combination with auto-antagonist inhibitor” (priority 1976, dated 1977)
≈ marks a conversion by molar mass, not a printed value. Where two headings read alike, the source gives them in different places.

Tests used:
[1] = tested on: Escherichia coli (Strain 2017); assay: Growth inhibition (complete repression of growth) of Escherichia coli culture; assay type: cell-based; conditions: for concentration of FDA-autoantagonist-inhibitor at which growth is completely repressed in combination with 3-fluoro-D-alanine / inhibitor-effective concentration as percentage of its own minimum effective antibacterial concentration: combined with 3-fluoro-D-alanine at 50 μg/ml
Description: When the 3-fluoro-D-alanine, at this concentration of 50 μg/ml, is combined with an FDA-autoantagonist-inhibitor, such as cycloserine at concentrations of only 0.39 μg/ml, terizidone at 0.8 μg/ml, D-4-(1'-methyl-3'-oxo-1'-butenyl)amino-3-isoxazolidinone or its sodium salt at 0.72 μg/ml, or D-cis-cyclothreonine at approximately 2 μg/ml, growth of the Escherichia coli is completely repressed.

[2] = tested on: Staphylococcus aureus 2949; assay: Protection of mice infected with Staphylococcus aureus 2949 (ED50); assay type: in vivo, Staphylococcus aureus 2949; female C.D.1 mice; conditions: 30 LD50; subcutaneous at 0, 2, 4 hours; 50% protected for 7 days
Description: (§1) Female C.D.1 mice of average weight 21.0 g. are injected intraperitoneally with 0.5 ml. of an appropriate dilution of a 16-hour broth culture containing the indicated pathogen. (The severity of the infectious challenge is represented in each case as the multiple of the dilution of the broth culture which is lethal for only 50% of the untreated population, i.e. No. LD50.) Appropriate dosages of 3-fluoro-D-alanine(FDA) and D-cycloserine, individually, and combinations of these two components in a fixed ration of 1:1 are administered in 0.5 ml volume subcutaneously on the dorsal surface, promptly at the time of the injection, and at 2 hour and 4 hour intervals thereafter. The results of these tests, which are expressed as the ED50 dose, which is the statistically interpolated dose required to protect 50% of the infected population for a period of 7 days following challenge and treatment, are as follows: […]

[3] = tested on: Serratia species 3374; assay: Protection of mice infected with Serratia species 3374 (ED50); assay type: in vivo, Serratia species 3374; female C.D.1 mice; conditions: 3 LD50; subcutaneous at 0, 2, 4 hours; 50% protected for 7 days
Description: as §1

[4] = tested on: Escherichia coli 2017; assay: Survival of mice infected with Escherichia coli 2017; assay type: in vivo, Escherichia coli 2017; female C.D.1 mice; conditions: for number of survivors in each group of five infected mice: subcutaneous, 3 LD50
Description: Groups of five female C.D.1 mice of average weight 21.0 g are injected intraperitoneally with 0.5 ml of a diluted broth culture of Escherichia coli 2017 representing 3 LD50 of bacterial pathogens. The indicated dosages of 3-fluoro-D-alanine (FDA) and D-cycloserine are then promptly administered in a 0.5 ml volume by the subcutaneous route on the dorsal surface.
Across the top row of the tabulation are listed the number of mice surviving (in each group of five infected mice) for the indicated doses (mg) of 3-fluoro-D-alanine alone; in the first vertical column are listed the number surviving for the indicated doses (mg) of cycloserine alone; and in the second vertical column are listed the number of mice surviving for combination doses of 5.0 mg of 3-fluoro-D-alanine and the indicated amount (mg) of cycloserine.

[5] = tested on: Escherichia coli (Strain 2017); assay: Growth inhibition (complete repression of growth) of Escherichia coli culture; assay type: cell-based; conditions: for MIC: Escherichia coli, read-out: minimum concentration for complete inhibition (repression) of growth
[6] = Stability in aqueous solution; assay type: physicochemical
[7] = Release of cycloserine or methyl-cycloserine in vivo when administered clinically; conditions: for effectiveness in releasing cycloserine or methyl-cycloserine in vivo: administered clinically, substantially avoiding dimerization
[8] = individual component alone, E. coli Strain 2017

| stability in aqueous solution [6] | effectiveness in releasing cycloserine or methyl-cycloserine in vivo [7] | Structure (SMILES) | concentration of FDA-autoantagonist-inhibitor at which growth is completely repressed in combination with 3-fluoro-D-alanine [1] | inhibitor-effective concentration as percentage of its own minimum effective antibacterial concentration [1] | ED50, individual components [2] | ED50, individual components [3] | MIC [5, 8] | other results |
| --- | --- | --- | --- | --- | --- | --- | --- | --- |
|  |  | N[C@@H]1CON=C1O [cycloserine, D-4-amino-3-isoxazolidinone, reference compound] | 0.39 µg/mL | less than 2% | 0.400 mg/dose | 2.5 mg/dose | 25 mg/L (≈ 245 µM) | suppression of the autoantagonism shown by 3-fluoro-D-alanine ([4]; 0.156 mg of cycloserine with 5.0 mg of 3-fluoro-D-alanine): completely suppresses the autoantagonism; number of survivors in each group of five infected mice ([4]; D-cycloserine alone 0.078 mg): 0 mice; number of survivors in each group of five infected mice ([4]; D-cycloserine alone 0.312 mg): 0 mice; number of survivors in each group of five infected mice ([4]; D-cycloserine alone 1.25 mg): 3 mice; number of survivors in each group of five infected mice ([4]; D-cycloserine alone 5.0 mg): 5 mice; protection ([4]; cycloserine alone, 0.156 mg): zero protection; minimum concentration for complete inhibition (repression) of growth [5, 8]: 25 µg/mL |
| remarkably stable in aqueous solution | extremely effective | CC(=O)C(C)=C(C)N[C@@H]1CONC1=O [D-4-(1',2'-dimethyl-3'-oxo-1'-butenyl)amino-3-isoxazolidinone] |  |  |  |  |  |  |
|  |  | N[C@H](CF)C(=O)O [FDA, 3-fluoro-D-alanine] |  |  | 0.801 mg/dose | 1.7 mg/dose | 3.12 mg/L (≈ 29.1 µM) | MIC ([1]; Escherichia coli, read-out: concentration at which growth is completely repressed): 3.2 mg/L (≈ 29.9 µM); survival ([4]; 1.25 mg dose of 3-fluoro-D-alanine alone): 80%; survival ([4]; 5.0 mg dose of 3-fluoro-D-alanine alone (autoantagonism)): 20%; number of survivors in each group of five infected mice ([4]; FDA alone 0.078 mg): 0 mice; number of survivors in each group of five infected mice ([4]; FDA alone 0.312 mg): 3 mice; number of survivors in each group of five infected mice ([4]; FDA alone 1.25 mg): 4 mice; number of survivors in each group of five infected mice ([4]; FDA alone 5.0 mg): 1 mice; growth of the organism at higher concentration (autoantagonist action) ([5]; 3-fluoro-D-alanine alone at 50 μg/ml): extensive growth |
| remarkably stable in aqueous solution | extremely effective | CC(=O)C=C(C)N[C@@H]1CONC1=O [D-4-(1'-methyl-3'-oxo-1'-butenyl)amino-3-isoxazolidinone] | 0.72 µg/mL |  |  |  |  | effectiveness in releasing cycloserine in the blood stream and in the bladder ([7]; blood stream, bladder): of particular effectiveness |
|  |  | O=C1NOCC1/N=C/c1ccc(/C=N/C2CONC2=O)cc1 (stereo not drawn) [terizidone] | 0.8 µg/mL | less than 2% |  |  |  |  |
|  |  | C[C@@H]1ONC(=O)[C@@H]1N [D-cis-cyclothreonine] | approximately 2 μg/ml | less than 2% |  |  |  |  |
